30 compounds from US20260184687A1, “DIHYDROINDENE DERIVATIVES AS MALT1 INHIBITORS” (C4X Discovery Limited, priority 2022, published 2026) can be followed below.

The target of this assay is T1, FL hMALT1 enzyme (Homo sapiens, UniProt Q9UDY8).
T1 sequence (Q9UDY8 1-824): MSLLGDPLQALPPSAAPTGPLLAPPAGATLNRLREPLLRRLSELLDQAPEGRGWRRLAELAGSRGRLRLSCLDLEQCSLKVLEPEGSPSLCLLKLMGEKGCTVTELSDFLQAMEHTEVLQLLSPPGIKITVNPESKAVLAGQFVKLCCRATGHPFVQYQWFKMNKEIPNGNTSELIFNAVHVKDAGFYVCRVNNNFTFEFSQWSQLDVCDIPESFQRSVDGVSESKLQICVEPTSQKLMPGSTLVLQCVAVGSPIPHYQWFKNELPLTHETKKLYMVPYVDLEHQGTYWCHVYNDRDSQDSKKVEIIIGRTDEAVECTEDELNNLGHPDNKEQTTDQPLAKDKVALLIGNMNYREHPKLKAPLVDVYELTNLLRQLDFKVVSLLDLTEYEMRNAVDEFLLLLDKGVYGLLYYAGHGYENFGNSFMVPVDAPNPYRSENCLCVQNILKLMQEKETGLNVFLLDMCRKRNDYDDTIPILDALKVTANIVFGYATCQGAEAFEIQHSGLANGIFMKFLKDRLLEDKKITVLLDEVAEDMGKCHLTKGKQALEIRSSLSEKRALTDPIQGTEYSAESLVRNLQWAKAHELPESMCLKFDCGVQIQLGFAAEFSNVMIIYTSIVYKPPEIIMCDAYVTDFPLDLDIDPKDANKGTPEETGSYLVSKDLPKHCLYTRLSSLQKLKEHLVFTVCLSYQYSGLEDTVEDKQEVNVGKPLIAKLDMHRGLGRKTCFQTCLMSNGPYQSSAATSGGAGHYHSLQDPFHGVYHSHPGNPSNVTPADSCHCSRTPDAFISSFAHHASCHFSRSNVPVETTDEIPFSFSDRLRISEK
In words: biochemical.
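Further: Cell-free protease assay: enzyme preincubated with compound 30 min at room temperature, then cleavage of fluorogenic Ac-LVSR-AMC substrate (100 µM) tracked by fluorescence (ex 360/em 460 nm).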

Experimental: MALT1 protease activity was assessed in vitro by measuring the cleavage of a fluorogenic tetrapeptide substrate.
For a higher sensitivity assay, commercially available FL hMALT1 enzyme (Abcam, 1-10 nM) was incubated with substrate (Ac-LVSR-AMC, 100 μM) in reaction buffer comprising 50 mM HEPES (pH7.0), 25 mM KCl, 0.1% (v/v) CHAPS, 1 mM TCEP and 0.7 M sodium citrate.
Test compounds dissolved in DMSO were dispensed into assay plates (384-well, black, shallow ProxiPlates). 7 μl enzyme solution was added and incubated at room temperature for 30 minutes to allow compound binding to occur. 2 μl substrate solution was then added and the fluorescence (excitation 360 nm, emission 460 nm) read every 15 minutes using a suitable plate reader. Final assay DMSO concentration was 1%. […] IC50 values were calculated using GraphPad Prism using a 4-parameter non-linear regression curve fit.

On to `CN(C(=O)[C@@H]1CNC(=O)C1)[C@@H](c1ccc(N[C@H]2Cc3ccc(Cl)c(F)c3C2)cn1)C(F)(F)F` (single isomer, unassigned) [Example 316], for which the IC50 (as a rule, the midpoint of a concentration-inhibition curve) came to 1.1 µM. In the case of `CN(C(=O)C1CCNC(=O)C1)[C@@H](c1ccc(N[C@H]2Cc3ccc(Cl)cc3C2)cn1)C(F)(F)F` (single isomer, unassigned) [Example 313] it was 0.19 µM.

`CN(C(=O)C1CCS(=O)(=O)CC1)[C@@H](c1ccc(NC2Cc3cccc(F)c3C2)cn1)C(F)(F)F` (single isomer, unassigned) [Example 274] registered a 50% inhibitory concentration (IC50) of 0.28 µM.

`CC(=O)N1CC(C(=O)N(C)[C@@H](c2ccc(NC3Cc4ccc(Cl)c(Cl)c4C3)cn2)C(F)(F)F)C1` (single isomer, unassigned) [Example 376] showed an IC50 of 1.2 µM. The figure for `CN(C(=O)C1CNC(=O)CO1)[C@@H](c1ccc(NC2Cc3ccccc3C2(C)C)cn1)C(F)(F)F` (single isomer, unassigned) [Example 135] is 0.45 µM. `CN(C(=O)C1CCS(=O)(=O)CC1)[C@@H](c1ccc(NC2Cc3cccc(Br)c3C2)cn1)C(F)(F)F` (stereo partly drawn) [Example 237, N-((1S)-1-(5-((4-Bromo-2,3-dihydro-1H-inden-2-yl)amino)pyridin-2-yl)-2,2,2-trifluoroethyl)-N-methyltetrahydro-2H-thiopyran-4-carboxamide 1,1-dioxide]: 0.11 µM corresponded to half-maximal inhibition (IC50).

`CN(C(=O)C1CCS(=O)(=O)CC1)[C@@H](c1ccc(NC2Cc3cccc(F)c3C2)cn1)C(F)(F)F` (single isomer, unassigned) [Example 275] gave a 50% inhibitory concentration (IC50) of 0.52 µM. The figure for `CN(C(=O)[C@H]1C[C@@H](O)C1)[C@@H](c1ccc(NC2Cc3ccc(Cl)c(F)c3C2)cn1)C(F)(F)F` (single isomer, unassigned) [Example 382] is 0.095 µM; for `CN(C(=O)C1CNC(=O)O1)[C@@H](c1ccc(N[C@H]2Cc3ccc(Cl)cc3C2)cn1)C(F)(F)F` (stereo partly drawn) [Example 303, N—((S)-1-(5-(((S)-5-Chloro-2,3-dihydro-1H-inden-2-yl)amino)pyridin-2-yl)-2,2,2-trifluoroethyl)-N-methyl-2-oxooxazolidine-5-carboxamide] it is 0.19 µM. In turn, `CN(C(=O)C1CCS(=O)(=O)CC1)[C@@H](c1ccc(NC2Cc3cc(F)c(F)c(F)c3C2)cn1)C(F)(F)F` (single isomer, unassigned) [Example 296] yielded an IC50 of 1.4 µM. `Cc1nnc(N2CC(C(=O)N(C)[C@@H](c3ccc(NC4Cc5ccc(Cl)c(F)c5C4)cn3)C(F)(F)F)C2)o1` (single isomer, unassigned) [Example 365] came in with a half-maximal inhibitory concentration (IC50) of 3.64 µM. In turn, `CN(C(=O)[C@H]1CCC(=O)NC1)[C@@H](c1ccc(NC2Cc3ccc(Cl)c(C4CC4)c3C2)cn1)C(F)(F)F` (single isomer, unassigned) [Example 329] yielded an IC50 of 0.68 µM. The compound `CN(C(=O)C1CN(C(=O)C2CCOC2)C1)[C@@H](c1ccc(NC2Cc3ccc(Cl)c(Cl)c3C2)cn1)C(F)(F)F` (single isomer, unassigned) [Example 354] showed an IC50 of 1 µM. `CN1CC(=O)NCC1C(=O)N(C)[C@@H](c1ccc(N[C@H]2Cc3ccccc3C2(C)C)cn1)C(F)(F)F` (single isomer, unassigned) [Example 201] displayed an IC50 of 0.11 µM. The compound `CN(C(=O)C1CCS(=O)(=O)CC1)[C@@H](c1ccc(NC2Cc3ccc(C(F)(F)F)cc3C2)cn1)C(F)(F)F` (single isomer, unassigned) [Example 256] had an IC50 of 1.1 µM. Turning to `CN(C(=O)C1CN(C(=O)C2CCO2)C1)[C@@H](c1ccc(NC2Cc3ccc(Cl)c(F)c3C2)cn1)C(F)(F)F` (single isomer, unassigned) [Example 385], the IC50 stood at 0.13 µM. Take `CN(C(=O)[C@@H]1CNC(=O)C1)[C@@H](c1ccc(NC2Cc3ccc(Cl)c(C4CC4)c3C2)cn1)C(F)(F)F` (single isomer, unassigned) [Example 327]: 0.57 µM corresponded to half-maximal inhibition (IC50). In the case of `CN(C(=O)C1CC2(CCN2)C1)[C@@H](c1ccc(NC2Cc3ccccc3C2(C)C)cn1)C(F)(F)F` (single isomer, unassigned) [Example 155] it was 0.18 µM. For the compound `CN(C(=O)C1CCS(=O)(=O)CC1)[C@@H](c1ccc(NC2Cc3cc(Cl)c(OC(F)F)cc3C2)cn1)C(F)(F)F` (stereo partly drawn) [Example 291, N-((1S)-1-(5-((5-Chloro-6-(difluoromethoxy)-2,3-dihydro-1H-inden-2-yl)amino)pyridin-2-yl)-2,2,2-trifluoroethyl)-N-methyltetrahydro-2H-thiopyran-4-carboxamide 1,1-dioxide], the IC50 is 0.34 µM. Compound `CN(C(=O)C1CC2(CNC2)C1)[C@@H](c1ccc(N[C@H]2Cc3ccccc3C2(C)C)cn1)C(F)(F)F` [Example 173, N—((S)-1-(5-(((S)-1,1-Dimethyl-2,3-dihydro-1H-inden-2-yl)amino)pyridin-2-yl)-2,2,2-trifluoroethyl)-N-methyl-2-azaspiro[3.3]heptane-6-carboxamide] showed an IC50 of 0.13 µM.

`CN(C(=O)C1CC2(CCN2CCO)C1)[C@@H](c1ccc(NC2Cc3ccccc3C2(C)C)cn1)C(F)(F)F` (single isomer, unassigned) [Example 248] had an IC50 of 0.14 µM.

Turning to `CN(C(=O)C1CCCNC1)[C@@H](c1ccc(NC2Cc3ccccc3C2(C)C)cn1)C(F)(F)F` (single isomer, unassigned) [Example 127], half-maximal inhibition (IC50) required 0.3 µM. For `CCc1cccc2c1CC(Nc1ccc([C@H](N(C)C(=O)C3CCS(=O)(=O)CC3)C(F)(F)F)nc1)C2` (single isomer, unassigned) [Example 197], the half-inhibitory concentration (IC50) was determined as 2.6 µM.

The compound `CN(C(=O)C1CS(=O)(=O)C1)[C@@H](c1ccc(NC2Cc3ccc(Cl)c(Cl)c3C2)cn1)C(F)(F)F` (stereo partly drawn) [Example 355, N-((1S)-1-(5-((4,5-Dichloro-2,3-dihydro-1H-inden-2-yl)amino)pyridin-2-yl)-2,2,2-trifluoroethyl)-N-methylthietane-3-carboxamide 1,1-dioxide] displayed an IC50 of 0.15 µM.

For `CN(C(=O)CN1CCCS1(=O)=O)[C@@H](c1ccc(NC2Cc3ccc(Cl)c(F)c3C2)cn1)C(F)(F)F` (single isomer, unassigned) [Example 362], inhibition was half-maximal at 0.28 µM (IC50). For the compound `CN(C(=O)C1CCS(=O)(=O)CC1)[C@@H](c1ccc(NC2Cc3c(F)ccc(Cl)c3C2)cn1)C(F)(F)F` (single isomer, unassigned) [Example 294], the midpoint of inhibition, the IC50, lay at 2.4 µM. In turn, `CN(C(=O)C1CN2CCC1CC2)[C@@H](c1ccc(NC2Cc3ccccc3C2(C)C)nc1)C(F)(F)F` (single isomer, unassigned) [Example 123] registered an IC50 of 0.87 µM.

The compound `CN(C(=O)CNS(C)(=O)=O)[C@@H](c1ccc(NC2Cc3ccc(Cl)c(Cl)c3C2)cn1)C(F)(F)F` (single isomer, unassigned) [Example 381] had an IC50 of 0.077 µM. As for `CN(C(=O)[C@H]1CNC(=O)C1)[C@@H](c1ccc(NC2Cc3ccc(Cl)c(Cl)c3C2)nc1)C(F)(F)F` (single isomer, unassigned) [Example 346], the IC50 was 1.1 µM. `CN(C(=O)C1COCC(=O)N1)[C@@H](c1ccc(NC2Cc3ccccc3C2(C)C)cn1)C(F)(F)F` (single isomer, unassigned) [Example 162] came in with a 50% inhibitory concentration (IC50) of 0.11 µM.
